Consider 18 compounds from article PMC9334274, “A unique class of Zn^2+-binding serine-based PBPs underlies cephalosporin resistance and sporogenesis in Clostridioides difficile” (Nature Communications, 2022).

For assay [1], the system named is C. difficile PBP3. The class given is binding, Clostridioides difficile R20291. The following applies: for PBP3 % inhibiton: 25 µM.
In assay [2] the test system is Ldt2. Briefly: Nitrocefin inhibition assay, Ldt2. The class given is biochemical, Clostridioides difficile R20291. As to conditions: for Ldt2 % inhibiton: β-lactam at 25 uM, nitrocefin hydrolysis, two independent experiments, individual values; for Nitrcoefin hydrolysis vs inhibitor (reaction curve reading): Idt2, representative curve. The procedure: Reactions were performed in a 96-well polystyrene plate with a final volume of 60 μL at 37 °C in 20 mM Tris pH 7, 200 mM NaCl. […] Protein was then added to the well for a final concentration of 1 µM and incubated for 15 min at 37 °C. 1 µL of nitrocefin (Millipore Sigma) was then added to each well for a final concentration of 20 µM, and reaction progress was monitored using a BioTek Cytation 5 plate reader (BioTek Instruments) at 488 nm and 37 °C for 1 h. Reaction rates were normalized to the control (no inhibitor) for % inhibition values. Assays were performed in duplicate and mean % inhibition values was calculated.

In assay [3] the test system is Ldt3. The class given is biochemical, Clostridioides difficile R20291. As to conditions: for Ldt3 % inhibiton / inhibition of Ldt3 (in words): 25 µM.
Assay [4] deals with C. difficile strain R20291. Briefly: Minimum inhibitory concentration (MIC) determination. The following applies: for MIC: Clostridioides difficile, R20291, 24 h.

≈ marks a conversion by molar mass, not a printed value. Where “and” joins values, the source holds several entries; their conditions need not be identical. Equal entries are not always repeated. Entries after “also recorded” stand apart in the source; their conditions may differ. Where two headings read alike, the source gives them in different places.

Regarding `C[C@@H](O)[C@H]1C(=O)N2C(C(=O)O)=C(S[C@@H]3CN[C@H](C(=O)N(C)C)C3)[C@H](C)[C@H]12` [meropenem], in assay [1], the PBP3 % inhibiton was 95.105% and 95.5466% and 97.2164%. The “inhibition of Ldt2 (in words)” value in assay [2] (25 µM) is “best inhibitors of Ldt2”. Besides, the Ldt2 % inhibiton in assay [2] (listed as MEM, 25 µM) is 88.3495% and 88.0368%. For the same compound, the Ldt3 % inhibiton in assay [3] is 25.5396% and 27.8512%. The MIC (commonly the lowest concentration found to suppress growth) in assay [4] came out at 4 µg/mL (≈ 10.4 µM).

For the compound `C[C@@H](O)[C@H]1C(=O)N2C(C(=O)O)=C(SCCN=CN)C[C@H]12` [imipenem], the PBP3 % inhibiton in assay [1] is 83.9601% and 87.3785% and 88.7659%. Moreover, the Ldt2 % inhibiton in assay [2] (listed as IMI, 25 µM) is 15.7605% and 16.7178%. Besides, in assay [4], the MIC worked out at 128 µg/mL (≈ 428 µM).

As to `CCN1CCN(C(=O)N[C@@H](C(=O)N[C@@H]2C(=O)N3[C@@H]2SC(C)(C)[C@@H]3C(=O)O)c2ccccc2)C(=O)C1=O` [piperacillin], in assay [1], the PBP3 % inhibiton was 92.03% and 94.7239% and 96.6236%. Also, the “inhibition of Ldt2 (in words)” value in assay [2] (25 µM) is “best inhibitors of Ldt2”. For the same compound, in assay [2] (listed as PIP, 25 µM), the Ldt2 % inhibiton is 57.879% and 59.7393%. Further, the Ldt3 % inhibiton in assay [3] is 51.7086% and 57.3554%. Also, the minimum inhibitory concentration (MIC) in assay [4] was determined as 16 µg/mL (≈ 30.9 µM).

For `Nc1nc(/C(=N/O)C(=O)N[C@@H]2C(=O)N3C(C(=O)O)=C(/C=C4\CCN([C@@H]5CCNC5)C4=O)CS[C@H]23)ns1` [ceftobiprole], the PBP3 % inhibiton in assay [1] was 100% and 96.748%. Moreover, the Ldt2 % inhibiton in assay [2] (listed as BPR, 25 µM) is 0% and 4.7546%. Moreover, in assay [3], the Ldt3 % inhibiton is 8.0036% and 4.298%. Further, the MIC in assay [4] is 2 µg/mL (≈ 3.74 µM).

Turning to `CC(=O)OCC1=C(C(=O)O)N2C(=O)[C@@H](NC(=O)Cc3cccs3)[C@H]2SC1` [cephalothin], in assay [1], the PBP3 % inhibiton is 97.9928% and 94.8412% and 96.842%. This compound had a Ldt2 % inhibiton in assay [2] of 0%. For the same compound, the Ldt3 % inhibiton in assay [3] was 13.1295% and 19.9174%. The compound also yielded an MIC in assay [4] of 64 µg/mL (≈ 161 µM).

For the compound `CC1(C)S[C@@H]2[C@H](NC(=O)Cc3ccccc3)C(=O)N2[C@H]1C(=O)O` [penicillin G], the PBP3 % inhibiton in assay [1] is 94.9098% and 94.1115% and 95.4645%. In addition, the Ldt2 % inhibiton in assay [2] (listed as EM, 25 µM) is 2.091% and 5.675%. In addition, the Ldt3 % inhibiton in assay [3] is 58.9928% and 66.7769%. Further, in assay [4], the “MIC (X)” value was 1 and the minimum inhibitory concentration (MIC) turned out to be 1 µg/mL (≈ 2.99 µM).

As to `CC(=O)OCC1=C(C(=O)O)N2C(=O)[C@@H](NC(=O)[C@H](N)c3ccccc3)[C@H]2SC1` [cephaloglycin], the PBP3 % inhibiton in assay [1] is 95.4184% and 89.9822% and 93.12%. Moreover, the Ldt2 % inhibiton in assay [2] is given as 0%. Also, the Ldt3 % inhibiton in assay [3] was 9.353% and 13.9669%. This compound also showed a minimal inhibitory concentration (MIC) in assay [4] of 256 µg/mL (≈ 631 µM).

For the compound `CO/N=C(\C(=O)N[C@@H]1C(=O)N2C(C(=O)O)=C(COC(N)=O)CS[C@H]12)c1ccco1` [cefuroxime], the PBP3 % inhibiton in assay [1] was 99.6269% and 93.7981% and 97.4091%. The same compound displayed a minimum inhibitory concentration (MIC) in assay [4] of 128 µg/mL (≈ 302 µM).

With `COc1cccc(OC)c1C(=O)N[C@@H]1C(=O)N2[C@@H]1SC(C)(C)[C@@H]2C(=O)O` [methicillin], in assay [1], the PBP3 % inhibiton is 92.4606% and 92.3713% and 94.0819%. Besides, in assay [4], the MIC turned out to be 8 µg/mL (≈ 21 µM).

In the case of `CC1=C(C(=O)O)N2C(=O)[C@@H](NC(=O)[C@H](N)c3ccccc3)[C@H]2SC1` [cephalexin], in assay [1], the “inhibition of PBP3 (in words)” value is recorded as “little to no biochemical inhibition; also recorded: no detectable inhibition”. Also, the “inhibition of Ldt2 (in words)” value in assay [2] (25 µM) was “failing to inhibit”. In addition, the Ldt2 % inhibiton in assay [2] is listed as 0%. In assay [3], the Ldt3 % inhibiton worked out at 0% and the “inhibition of Ldt3 (in words)” value was “failing to inhibit”. The compound also returned an MIC in assay [4] of 4 µg/mL (≈ 11.5 µM).

`CO/N=C(\C(=O)N[C@@H]1C(=O)N2C(C(=O)O)=C(COC(C)=O)CS[C@H]12)c1csc(N)n1` [cefotaxime]: in assay [1], the PBP3 % inhibiton was 100.738% and 94.6733% and 99.7428%. Moreover, the Ldt2 % inhibiton in assay [2] (listed as CTX, 25 µM) was 12.8454% and 16.2577%. The Ldt3 % inhibiton in assay [3] was 7.194% and 11.4876%. In assay [4], the “MIC (X)” value was 256 and inhibition of growth (MIC) required 256 µg/mL (≈ 562 µM).

On to `CC(C)(O/N=C(\C(=O)N[C@@H]1C(=O)N2C(C(=O)[O-])=C(C[n+]3ccccc3)CS[C@H]12)c1csc(N)n1)C(=O)O` [ceftazidime], for which, in assay [1], the PBP3 % inhibiton was 100% and 96.9383%. For the same compound, the MIC in assay [4] came to 256 µg/mL (≈ 468 µM).

Take `CO/N=C(\C(=O)N[C@@H]1C(=O)N2C(C(=O)O)=C(/C=C\c3scnc3C)CS[C@H]12)c1csc(N)n1` [cefditoren]: the PBP3 % inhibiton in assay [1] was 82.5587% and 73.9018% and 78.609%. For the same compound, the Ldt2 % inhibiton in assay [2] (listed as CDN, 25 µM) is 13.9657% and 18.7883%. In assay [3], the Ldt3 % inhibiton is 72.482% and 72.4793%; the “inhibition of Ldt3 (in words)” value is reported as “best”. In assay [4], this compound returned a minimal inhibitory concentration (MIC) of 16 µg/mL (≈ 31.6 µM).

On to `Cc1onc(-c2ccccc2Cl)c1C(=O)N[C@@H]1C(=O)N2[C@@H]1SC(C)(C)[C@@H]2C(=O)O` [cloxacillin], for which the PBP3 % inhibiton in assay [1] is 82.7754% and 83.7053% and 84.4216%. In addition, the “Nitrcoefin hydrolysis vs inhibitor (reaction curve reading)” value (shortened to “Nitrcoefin hydrolysis vs inhibitor”) in assay [2] (time 0 s) amounted to 0.044; in assay [2] (time 300 s), 0.046; in assay [2] (time 600 s), 0.048; in assay [2] (time 900 s), 0.05; in assay [2] (time 1200 s) it was 0.051; in assay [2] (time 1500 s), 0.053. Further, the “Nitrcoefin hydrolysis vs inhibitor” value in assay [2] (time 1800 s) amounted to 0.054; in assay [2] (time 2100 s), 0.056; in assay [2] (time 2400 s), 0.057; in assay [3] (time 0 s), 0.044; in assay [3] (time 300 s), 0.045; in assay [3] (time 600 s), 0.045. Further, the “Nitrcoefin hydrolysis vs inhibitor” value in assay [3] (time 900 s), in assay [3] (time 1200 s), in assay [3] (time 1500 s), in assay [3] (time 1800 s), in assay [3] (time 2100 s) and in assay [3] (time 2400 s) was 0.046 each time. For the same compound, in assay [2] (listed as ClX, 25 µM), the Ldt2 % inhibiton is 15.534% and 20.6288%. Also, the Ldt3 % inhibiton in assay [3] was 89.2086% and 94.2975%. Besides, the “inhibition of Ldt3 (in words)” value in assay [3] is given as “best”. In assay [4], this compound gave a minimal inhibitory concentration (MIC) of 16 µg/mL (≈ 36.7 µM).

Take `CO/N=C(\C(=O)N[C@@H]1C(=O)N2C(C(=O)O)=C(CSc3nc(=O)c(=O)[nH]n3C)CS[C@H]12)c1csc(N)n1` [ceftriaxone]: in assay [1], the PBP3 % inhibiton is 101.93% and 95.7776% and 100%. In addition, the lowest concentration to inhibit growth in assay [4] (MIC) was 32 µg/mL (≈ 57.7 µM).

`C[C@H]1[C@H](NC(=O)/C(=N\OC(C)(C)C(=O)O)c2csc(N)n2)C(=O)N1S(=O)(=O)O` [aztreonam]: the MIC in assay [4] turned out to be 256 µg/mL (≈ 588 µM).

`C[C@@H](O)[C@H]1C(=O)N2C(C(=O)O)=C(S[C@@H]3CN[C@H](CNS(N)(=O)=O)C3)[C@H](C)[C@H]12` [doripenem]: the PBP3 % inhibiton in assay [1] was 95.9747% and 95.7759% and 97.3818%. Also, the “inhibition of Ldt2 (in words)” value in assay [2] (25 µM) is recorded as “best inhibitors of Ldt2”. Moreover, the “Nitrcoefin hydrolysis vs inhibitor” value amounted to 0.043 in assay [2] (time 0 s); 0.044 in assay [2] (time 300 s); 0.045 in assay [2] (time 600 s); 0.045 in assay [2] (time 900 s); 0.045 in assay [2] (time 1200 s); 0.045 in assay [2] (time 1500 s). Also, the “Nitrcoefin hydrolysis vs inhibitor” value was found to be 0.046 in assay [2] (time 1800 s); 0.046 in assay [2] (time 2100 s); 0.047 in assay [2] (time 2400 s); 0.045 in assay [3] (time 0 s); 0.046 in assay [3] (time 300 s); 0.048 in assay [3] (time 600 s). In addition, the “Nitrcoefin hydrolysis vs inhibitor” value in assay [3] (time 900 s) is given as 0.049; in assay [3] (time 1200 s), 0.05; in assay [3] (time 1500 s), 0.051; in assay [3] (time 1800 s) it was 0.052; in assay [3] (time 2100 s), 0.052; in assay [3] (time 2400 s) it was 0.053. Besides, the Ldt2 % inhibiton in assay [2] (listed as DOR, 25 µM) is 92.8305% and 93.0982%. In assay [3], the Ldt3 % inhibiton was 49.0108% and 45.9504%. For the same compound, the minimal inhibitory concentration (MIC) in assay [4] stood at 1 µg/mL (≈ 2.38 µM).

Regarding `CC1(C)S[C@@H]2[C@H](NC(=O)[C@H](N)c3ccccc3)C(=O)N2[C@H]1C(=O)O` [ampicillin], the PBP3 % inhibiton in assay [1] was 92.7496% and 89.9467% and 91.5944%. Also, the Ldt2 % inhibiton in assay [2] (listed as AMP, 25 µM) was 1.643% and 4.064%. Also, in assay [4], the “MIC (X)” value is 2 and the MIC is 2 µg/mL (≈ 5.72 µM).
